Converted amounts (≈) assume the structure as drawn. Like-named read-outs stand apart in the source and are kept apart here.
Columns and labels:
[1] = test system: Staphylococcus Shimanishi; assay: MIC against bacteria (Table I), strain (17); type: cell-based; details: (17) Staphylococcus Shimanishi; read-out: MIC
From the text: (§1) Now, for illustrating the excellent pharmacological effects of the compounds of this invention, the values of MIC (γ/ml.) of the compounds against various bacteria are shown in Table 1, in which the compounds of this invention used are shown by example numbers.
(17) Staphylococcus Shimanishi

Proteus vulgaris OXK US = assay: MIC against bacteria (Table I), strain (1); type: cell-based
From the text: as §1
(1) Proteus vulgaris OXK US

[2] = test system: Proteus mirabilis IXM OM-19; assay: MIC against bacteria (Table I), strain (3); type: cell-based; details: IXMOM19; (3) Proteus mirabilis IXM OM-19; read-out: MIC
From the text: as §1
(3) Proteus mirabilis IXM OM-19

Salmonella typhi H901 W = assay: MIC against bacteria (Table I), strain (9); type: cell-based; details: Salmonella enterica, TYPHI
From the text: as §1
(9) Salmonella typhi H901 W

Salmonella enteritidis = assay: MIC against bacteria (Table I), strain (10); type: cell-based; details: Salmonella enterica
From the text: as §1
(10) Salmonella enteritidis

Shigella sonnei II 37148 = assay: MIC against bacteria (Table I), strain (12); type: cell-based; details: II37148; (12) Shigella sonnei II 37148; read-out: MIC
From the text: as §1

Proteus vulgaris 0X 19US = assay: MIC against bacteria (Table I), strain (2); type: cell-based; details: 0X19US
From the text: as §1
(2) Proteus vulgaris 0X 19US

[3] = test system: β-lactamase isolated from Pseudomonas aeruginosa 21; assay: Resistance to β-lactamase: amount of unaltered test sample (Table 3); type: biochemical; details: initial concentration 100γ/ml
From the text: For example, the relation between the amount (γ/ml) of an unaltered test sample at an initial concentration of the sample 100γ/ml against β-lactamase isolated from Pseudomonas aeruginosa 21 at various dilutions of the enzyme were investigated.

[4] = test system: Escherichia coli kauffmann 0-1; assay: MIC against bacteria (Table I), strain (7); type: cell-based; details: Escherichia coli
From the text: as §1
(7) Escherichia coli kauffmann 0-1

[5] = test system: Klebsiella pneumoniae ATCC 10031; assay: MIC against bacteria (Table I), strain (8); type: cell-based; details: ATCC10031
From the text: as §1
(8) Klebsiella pneumoniae ATCC 10031

[6] = test system: Pseudomonas aeruginosa 99 (Gentamycin resistant); assay: MIC against bacteria (Table I), strain (5); type: cell-based; details: (5) Pseudomonas aeruginosa 99 (Gentamycin resistant); read-out: MIC
From the text: as §1
(5) Pseudomonas aeruginosa 99 (Gentamycin resistant)

[7] = test system: Bacillus megatherium 10778; assay: MIC against bacteria (Table I), strain (13); type: cell-based; details: (13) Bacillus megatherium 10778; read-out: MIC
From the text: as §1

[8] = test system: Psuedomonas ovalis IMA 1002; assay: MIC against bacteria (Table I), strain (6); type: cell-based; details: (6) Psuedomonas ovalis IMA 1002; read-out: MIC
From the text: as §1
(6) Psuedomonas ovalis IMA 1002

[9] = test system: Staphylococcus aureus 209P; assay: MIC against bacteria (Table I), strain (16); type: cell-based
From the text: as §1
(16) Staphylococcus aureus 209P

[10] = test system: Bacillus subtilis ATCC 6633; assay: MIC against bacteria (Table I), strain (14); type: cell-based; details: ATCC6633; (14) Bacillus subtilis ATCC 6633; read-out: MIC
From the text: as §1
(14) Bacillus subtilis ATCC 6633

[11] = test system: Pseudomonas aeruginosa ATCC 8689; assay: MIC against bacteria (Table I), strain (4); type: cell-based; details: ATCC8689; (4) Pseudomonas aeruginosa ATCC 8689; read-out: MIC
From the text: as §1
(4) Pseudomonas aeruginosa ATCC 8689

Staphylococcus Onuma = assay: MIC against bacteria (Table I), strain (18); type: cell-based
From the text: as §1
(18) Staphylococcus Onuma

[12] = test system: Shigella flexneri 2a 1675; assay: MIC against bacteria (Table I), strain (11); type: cell-based; details: 2A1675; (11) Shigella flexneri 2a 1675; read-out: MIC
From the text: as §1

[13] = test system: Micrococcus flavus ATCC 10240; assay: MIC against bacteria (Table I), strain (15); type: cell-based; details: ATCC10240
From the text: as §1
(15) Micrococcus flavus ATCC 10240

[14] = (2) Proteus vulgaris 0X 19US, read-out: MIC
[15] = (15) Micrococcus flavus ATCC 10240, read-out: MIC
[16] = (1) Proteus vulgaris OXK US, read-out: MIC
[17] = (10) Salmonella enteritidis, read-out: MIC
[18] = (8) Klebsiella pneumoniae ATCC 10031, read-out: MIC
[19] = (18) Staphylococcus Onuma, read-out: MIC

Compound | MIC [1] [µg/mL] | MIC [2] [µg/mL] | MIC (Salmonella typhi H901 W) [µg/mL] | MIC (Salmonella enteritidis; ENTERITIDIS) [µg/mL] | MIC (Shigella sonnei II 37148) [µg/mL] | MIC (Proteus vulgaris 0X 19US; [14]) [µg/mL] | MIC [4] [µg/mL] | MIC [6] [µg/mL] | MIC [7] [µg/mL] | MIC [8] [µg/mL] | MIC [10] [µg/mL] | MIC [11] [µg/mL] | MIC [12] [µg/mL] | MIC [13, 15] [µg/mL] | MIC (Proteus vulgaris OXK US; [16]) [µg/mL] | MIC (Salmonella enteritidis; [17]) [µg/mL] | MIC [5, 18] [µg/mL] | MIC ([9]; Staphylococcus aureus, 209P) [µg/mL] | MIC (Staphylococcus Onuma; [19]) [µg/mL] | further results
Cc1nnc(SCC2=C(C(=O)O)N3C(=O)[C@@H](NC(=O)Cn4cnnn4)[C@H]3SC2)s1 [Cephazolin, reference compound] | 0.78 (≈ 1.72 µM) | 6.25 (≈ 13.8 µM) | 1.56 (≈ 3.43 µM) | 1.56 (≈ 3.43 µM) | 1.56 (≈ 3.43 µM) | 25 (≈ 55 µM) | 1.56 (≈ 3.43 µM) | > 100 | 0.19 (≈ 0.418 µM) | > 100 | 0.19 (≈ 0.418 µM) | > 100 | 1.56 (≈ 3.43 µM) | 0.19 (≈ 0.418 µM) | – | – | – | – | – | MIC (Proteus vulgaris OXK US; Proteus vulgaris): 3.13 µg/mL (≈ 6.89 µM); Amount of unaltered test sample ([3]; β-lactamase dilution ×2): 0 µg/mL; Amount of unaltered test sample ([3]; β-lactamase dilution ×4): 0 µg/mL; Amount of unaltered test sample ([3]; β-lactamase dilution ×8): 0 µg/mL; Amount of unaltered test sample ([3]; β-lactamase dilution ×16): 0 µg/mL; Amount of unaltered test sample ([3]; β-lactamase dilution ×32): 0 µg/mL; Amount of unaltered test sample ([3]; β-lactamase dilution ×64): 9.2 µg/mL; Amount of unaltered test sample ([3]; β-lactamase dilution ×128): 21.5 µg/mL; Amount of unaltered test sample ([3]; β-lactamase dilution ×256): 84.6 µg/mL; Amount of unaltered test sample ([3]; β-lactamase dilution ×512): 96.7 µg/mL; Amount of unaltered test sample ([3]; β-lactamase dilution ×1024): 100 µg/mL; MIC ([5]; Klebsiella pneumoniae): 1.56 µg/mL (≈ 3.43 µM); MIC ([9]; (16) Staphylococcus aureus 209P, read-out: MIC): 0.19 µg/mL (≈ 0.418 µM); MIC (Staphylococcus Onuma; Staphylococcus): 1.56 µg/mL (≈ 3.43 µM)
O=C(O)Cn1nnnc1SCC1=C(C(=O)O)N2C(=O)[C@@H](NC(=O)[C@H](NC(=O)c3cnccc3O)c3ccccc3)[C@H]2SC1 [Example 15, 7-[D-α-(4-hydroxynicotinoylamido)-α-phenylacetamido]-3-(1-carboxymethyltetrazol-5-yl)-thiomethyl-Δ^3-cephem-4-carboxylic acid] | 12.5 (≈ 19.9 µM) | < 0.09 | 3.13 (≈ 4.99 µM) | – | 3.13 (≈ 4.99 µM) | 0.39 (≈ 0.622 µM) | 6.25 (≈ 9.97 µM) | 6.25 (≈ 9.97 µM) | 0.39 (≈ 0.622 µM) | 12.5 (≈ 19.9 µM) | 0.39 (≈ 0.622 µM) | 25 (≈ 39.9 µM) | 3.13 (≈ 4.99 µM) | 25 (≈ 39.9 µM) | 0.19 (≈ 0.303 µM) | 0.78 (≈ 1.24 µM) | 6.25 (≈ 9.97 µM) | 3.13 (≈ 4.99 µM) | 25 (≈ 39.9 µM) | –
CC(Sc1nnc(SCC2=C(C(=O)O)N3C(=O)[C@@H](NC(=O)[C@H](NC(=O)c4cnccc4O)c4ccccc4)[C@H]3SC2)s1)C(=O)O (stereo partly drawn) [Example 21, 7-[D-α-(4-hydroxynicotinoylamido)-α-phenylacetamido]-3-[5-(1-carboxyethylthio)-1,3,4-thiadiazol-2-yl]thiomethyl-Δ^3-cephem-4-carboxylic acid] | 6.25 (≈ 9.07 µM) | 0.39 (≈ 0.566 µM) | 1.56 (≈ 2.26 µM) | 0.39 (≈ 0.566 µM) | 3.13 (≈ 4.54 µM) | 0.19 (≈ 0.276 µM) | 3.13 (≈ 4.54 µM) | 12.5 (≈ 18.1 µM) | 0.39 (≈ 0.566 µM) | 12.5 (≈ 18.1 µM) | 0.39 (≈ 0.566 µM) | 12.5 (≈ 18.1 µM) | 1.56 (≈ 2.26 µM) | – | < 0.09 | – | 6.25 (≈ 9.07 µM) | 1.56 (≈ 2.26 µM) | 6.25 (≈ 9.07 µM) | MIC ([13]; Micrococcus flavus): 3.13 µg/mL (≈ 4.54 µM)
CC(C)(Sc1nnc(SCC2=C(C(=O)O)N3C(=O)[C@@H](NC(=O)[C@H](NC(=O)c4cnccc4O)c4ccccc4)[C@H]3SC2)s1)C(=O)O [Example 22, 7-[D-α-(4-hydroxynicotinoylamido)-α-phenylacetamido]-3-[5-(1-carboxy-1-methylethylthio)-1,3,4-thiadiazol-2-yl]thiomethyl-Δ^3-cephem-4-carboxylic acid] | 12.5 (≈ 17.8 µM) | 0.39 (≈ 0.555 µM) | 3.13 (≈ 4.45 µM) | – | 3.13 (≈ 4.45 µM) | – | 3.13 (≈ 4.45 µM) | 6.25 (≈ 8.89 µM) | 0.39 (≈ 0.555 µM) | 12.5 (≈ 17.8 µM) | 0.78 (≈ 1.11 µM) | 12.5 (≈ 17.8 µM) | 1.56 (≈ 2.22 µM) | 6.25 (≈ 8.89 µM) | 0.19 (≈ 0.27 µM) | 0.78 (≈ 1.11 µM) | 6.25 (≈ 8.89 µM) | 1.56 (≈ 2.22 µM) | 12.5 (≈ 17.8 µM) | MIC (Proteus vulgaris 0X 19US; Proteus vulgaris): 1.56 µg/mL (≈ 2.22 µM)
